Converted amounts (≈) assume the structure as drawn. Read-outs that look alike come from different tables or passages of the source.
How the values were obtained:
[1] = system: Corynebacterium pyogenes CY1; assay: MIC against veterinary bacteria in vitro (Diagnostic Sensitivity Test Agar); conditions: CY1, 18 h
Protocol: (§2) The activity of the normonyl derivatives of the Examples against various veterinarily important bacteria, was assayed in vitro using two-fold serial dilutions in Diagnostic Sensitivity Test Agar inoculated with 10^4 organisms.

[2] = system: M. hyopneumoniae ATCC 25095; assay: MIC against Mycoplasma in vitro (Friis broth with agarose); assay type: cell-based; conditions: Mesomycoplasma hyopneumoniae, ATCC25095, 144 h
Staph. aureus Oxford = assay: MIC against human bacteria in vitro (nutrient agar, chocolated horse blood); assay type: cell-based; conditions: Staphylococcus aureus; human; Staph. aureus Oxford; 18 hours at 37° C; read-out: MIC
In short: (§1)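 Agar dilution series; medium supplemented with 5% chocolated horse blood; MIC taken from the dilution series.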

P. mirabilis 889 = assay: as above; assay type: cell-based; conditions: Proteus mirabilis; human; P. mirabilis 889; 18 hours at 37° C; read-out: MIC
In short: as §1

[3] = system: Corynebacterium xerosis 9755; assay: as above; assay type: cell-based; conditions: human; Corynebacterium xerosis 9755; 18 hours at 37° C; read-out: MIC
In short: as §1

Strep. agalactiae 2788-B = assay: as above; assay type: cell-based; conditions: Streptococcus agalactiae; human; Strep. agalactiae 2788-B; 18 hours at 37° C; read-out: MIC
In short: as §1

[4] = system: Haemophilus influenzae Wy21; assay: as above; assay type: cell-based
In short: as §1

[5] = system: Pasteurella multocida 1633; assay: as above; assay type: cell-based; conditions: human; Pasteurella multocida 1633; 18 hours at 37° C; read-out: MIC
In short: as §1

Strep. spp. 64/848-C = assay: as above; assay type: cell-based; conditions: human; Strep. spp. 64/848-C; 18 hours at 37° C; read-out: MIC
In short: as §1

Sarcina lutea 8340 = assay: as above; assay type: cell-based; conditions: Micrococcus luteus; human; Sarcina lutea 8340; 18 hours at 37° C; read-out: MIC
In short: as §1

E. coli NCTC 10418 = assay: as above; assay type: cell-based; conditions: Escherichia coli, NCTC10418; human; E. coli NCTC 10418; 18 hours at 37° C; read-out: MIC
In short: as §1

K. aerogenes A = assay: as above; assay type: cell-based; conditions: Klebsiella aerogenes; human; K. aerogenes A; 18 hours at 37° C; read-out: MIC
In short: as §1

[6] = system: Ps. aeruginosa NCTC 10662; assay: as above; assay type: cell-based; conditions: Pseudomonas aeruginosa, NCTC10662; human; Ps. aeruginosa NCTC 10662; 18 hours at 37° C; read-out: MIC
In short: as §1

Staph. aureus Russell = assay: as above; assay type: cell-based; conditions: Staphylococcus aureus; human; Staph. aureus Russell; 18 hours at 37° C; read-out: MIC
In short: as §1

[7] = system: Strep. pyogenes R80/421-A; assay: as above; assay type: cell-based; conditions: Streptococcus pyogenes; human; Strep. pyogenes R80/421-A; 18 hours at 37° C; read-out: MIC
In short: as §1

S. typhimurium S18 = assay: MIC against veterinary bacteria in vitro (Diagnostic Sensitivity Test Agar); conditions: Salmonella enterica, 18 h
Protocol: as §2

[8] = system: M. hyopneumoniae J2206/183^b; assay: MIC against Mycoplasma in vitro (Friis broth with agarose); assay type: cell-based; conditions: Mesomycoplasma hyopneumoniae, 144 h
S. dublin S7 = assay: MIC against veterinary bacteria in vitro (Diagnostic Sensitivity Test Agar); conditions: Salmonella enterica, S7, 18 h
Protocol: as §2

B. subtilis ATCC 6633 = assay: as above; conditions: Bacillus subtilis, ATCC6633, 18 h
Protocol: as §2

[9] = system: Erysipelothrix rhusiopathiae NCTC 8163; assay: as above; conditions: NCTC8163, 18 h
Protocol: as §2

M. bovis NCTC 10131 = assay: microbe, parasite or virus in culture; assay type: cell-based; conditions: NCTC10131, 144 h
M. gallisepticum S6 = assay: MIC against Mycoplasma in vitro (Friis broth with agarose); assay type: cell-based; conditions: Mycoplasmoides gallisepticum
M. hyopneumoniae HK (2) = assay: as above; assay type: cell-based; conditions: Mesomycoplasma hyopneumoniae, 144 h
M. hyopneumoniae LABER = assay: as above; assay type: cell-based; conditions: Mesomycoplasma hyopneumoniae, 144 h
[10] = system: Neisseria catarrhalis 1502; assay: MIC against human bacteria in vitro (nutrient agar, chocolated horse blood); assay type: cell-based; conditions: human; Neisseria catarrhalis 1502; 18 hours at 37° C; read-out: MIC
In short: as §1

[11] = system: M. hyopneumoniae PW/C/210; assay: MIC against Mycoplasma in vitro (Friis broth with agarose); assay type: cell-based; conditions: Mesomycoplasma hyopneumoniae, 144 h; M. hyopneumoniae PW/C/210; 6 days at 37° C; read-out: MIC
M. hyopneumoniae NB12 = assay: as above; assay type: cell-based; conditions: Mesomycoplasma hyopneumoniae, 144 h; M. hyopneumoniae NB12; 6 days at 37° C; read-out: MIC
[12] = M. hyopneumoniae ATCC 25095, 6 days at 37° C, read-out: MIC
[13] = human, Haemophilus influenzae Wy21, 18 hours at 37° C, read-out: MIC
[14] = M. hyopneumoniae J2206/183^b, 6 days at 37° C, read-out: MIC
[15] = 144 h, M. gallisepticum S6, 6 days at 37° C, read-out: MIC

Structure (SMILES) | MIC [1] [mg/L] | MIC (Staph. aureus Oxford) [mg/L] | MIC (P. mirabilis 889) [mg/L] | MIC [3] [mg/L] | MIC (Strep. agalactiae 2788-B) [mg/L] | MIC [4, 13] [mg/L] | MIC [5] [mg/L] | MIC (Strep. spp. 64/848-C) [mg/L] | MIC (Sarcina lutea 8340) [mg/L] | MIC (E. coli NCTC 10418) [mg/L] | MIC (K. aerogenes A) [mg/L] | MIC [6] [mg/L] | MIC (Staph. aureus Russell) [mg/L] | MIC [7] [mg/L] | MIC (S. typhimurium S18) [mg/L] | MIC [8, 14] [mg/L] | MIC (S. dublin S7) [mg/L] | MIC [9] [mg/L] | MIC (M. bovis NCTC 10131) [mg/L] | MIC (M. gallisepticum S6; [15]) [mg/L] | also measured
CC(=Cc1noc(-c2ccccc2)n1)CC1OCC(CC2OC2C(C)C(C)O)C(O)C1O (centres unmarked) [Example 17, 3-(1-Normon-2-yl)-5-phenyl-1,2,4-oxadiazole] | > 80 | 4 (≈ 9 µM) | > 128 | > 128 | 8 (≈ 18 µM) | 1 (≈ 2.25 µM) | 16 (≈ 36 µM) | 8 (≈ 18 µM) | > 128 | > 128 | > 128 | > 128 | 4 (≈ 9 µM) | 4 (≈ 9 µM) | > 80 | 2.5 (≈ 5.62 µM) | > 80 | 10 (≈ 22.5 µM) | 0.05 (≈ 0.112 µM) | 10 (≈ 22.5 µM) | MIC [2, 12]: 1 mg/L (≈ 2.25 µM); MIC (B. subtilis ATCC 6633): 0.625 mg/L (≈ 1.41 µM)
CC(=Cc1nnc(-c2cccs2)o1)CC1OCC(CC2OC2C(C)C(C)O)C(O)C1O (centres unmarked) [Example 6, 2-(1-Normon-2-yl)-5-(2-thienyl)-1,3,4-oxadiazole A] | > 80 | 8 (≈ 17.8 µM) | > 128 | 128 (≈ 284 µM) | 32 (≈ 71 µM) | 2 (≈ 4.44 µM) | 2 (≈ 4.44 µM) | 32 (≈ 71 µM) | 32 (≈ 71 µM) | > 128 | > 128 | > 128 | 16 (≈ 35.5 µM) | 16 (≈ 35.5 µM) | > 80 | – | > 80 | 80 (≈ 178 µM) | 0.05 (≈ 0.111 µM) | > 10 | MIC [2]: 2.5 mg/L (≈ 5.55 µM); MIC [8]: 5 mg/L (≈ 11.1 µM); MIC (M. hyopneumoniae HK (2)): 5 mg/L (≈ 11.1 µM); MIC (M. hyopneumoniae LABER): 2.5 mg/L (≈ 5.55 µM)
CC(=Cc1nnc(-c2ccncc2)o1)CC1OCC(CC2OC2C(C)C(C)O)C(O)C1O (centres unmarked) [Example 7, 2-(1-Normon-2-yl)-5-(4-pyridyl)-1,3,4-oxadiazole A] | > 80 | 2 (≈ 4.49 µM) | – | – | 8 (≈ 18 µM) | – | > 128 | 8 (≈ 18 µM) | > 128 | > 128 | 128 (≈ 287 µM) | > 128 | 32 (≈ 71.8 µM) | – | > 80 | 2.5 (≈ 5.61 µM) | > 80 | 80 (≈ 180 µM) | 0.025 (≈ 0.0561 µM) | – | MIC ([4]; Haemophilus influenzae, WY21, 18 h): 1 mg/L (≈ 2.24 µM); MIC [10]: 0.25 mg/L (≈ 0.561 µM); MIC (B. subtilis ATCC 6633): 2.5 mg/L (≈ 5.61 µM); MIC (M. gallisepticum S6; S6, 144 h): > 10 mg/L
CC(=Cc1nc(-c2ccccc2)no1)CC1OCC(CC2OC2C(C)C(C)O)C(O)C1O (centres unmarked) [Example 15, 5-(1-Normon-2-yl)-3-phenyl-1,2,4-oxadiazole A] | > 80 | 16 (≈ 36 µM) | > 128 | > 128 | 64 (≈ 144 µM) | 4 (≈ 9 µM) | 64 (≈ 144 µM) | 64 (≈ 144 µM) | > 128 | > 128 | > 128 | > 128 | 32 (≈ 72 µM) | 32 (≈ 72 µM) | > 80 | 10 (≈ 22.5 µM) | > 80 | 40 (≈ 90 µM) | 0.1 (≈ 0.225 µM) | > 10 | MIC [11]: 5 mg/L (≈ 11.2 µM); MIC [2, 12]: 5 mg/L (≈ 11.2 µM); MIC (M. hyopneumoniae HK (2); M. hyopneumoniae HK (2), 6 days at 37° C, read-out: MIC): 10 mg/L (≈ 22.5 µM); MIC (M. hyopneumoniae NB12): 10 mg/L (≈ 22.5 µM); MIC (M. hyopneumoniae LABER; M. hyopneumoniae LABER, 6 days at 37° C, read-out: MIC): 5 mg/L (≈ 11.2 µM)

Reference: US4861788A, “Antibacterial 1-normon-2-yl-heterocyclic compounds” (Beecham Group plc, priority 1983, dated 1989)
